Consider 33 molecules from patent US20100227859A1, “TRICYCLIC COMPOUNDS AS MATRIX METALLOPROTEINASE INHIBITORS” (priority 2007, published 2010).

purified human MMP-12 enzyme, sequence (P39900 106-470): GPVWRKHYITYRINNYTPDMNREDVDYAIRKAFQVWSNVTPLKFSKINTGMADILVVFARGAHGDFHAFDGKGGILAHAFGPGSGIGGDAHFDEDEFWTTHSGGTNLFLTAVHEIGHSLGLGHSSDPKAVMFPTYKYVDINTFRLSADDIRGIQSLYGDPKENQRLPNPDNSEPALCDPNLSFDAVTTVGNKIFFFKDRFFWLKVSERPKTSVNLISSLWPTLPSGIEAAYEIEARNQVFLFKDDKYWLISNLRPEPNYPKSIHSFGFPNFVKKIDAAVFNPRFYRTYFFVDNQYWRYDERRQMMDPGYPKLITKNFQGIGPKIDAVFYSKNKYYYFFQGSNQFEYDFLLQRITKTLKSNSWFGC

This assay concerns the target purified human MMP-12 enzyme (Homo sapiens, UniProt P39900). Description: MMP-12 FRET assay. The format is biochemical. Conditions: substrate 20 μM, room temperature. In outline:
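Initial fluorescence rate (325/395 nm) of cleavage of MCA-Pro-Leu-Gly-Leu-Dpa(DNP)-Ala-Arg, 20 μM final, was followed for 30 min at room temperature after a 30 min enzyme–compound preincubation. Buffer: 50 mM HEPES pH 7.4, 100 mM NaCl, 5 mM CaCl2, 0.005% Brij-35, with 10% final DMSO. IC50 came from a Hill-type fit of rate versus inhibitor concentration.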
On to `C/C=C\c1ccc2oc3cc(S(=O)(=O)N[C@H](C(=O)O)C(C)C)ccc3c2c1` [Compound 67, (S,Z)-3-methyl-2-(8-(prop-1-enyl)dibenzo[b,d]furan-3-sulfonamido)butanoic acid], for which the IC50 (usually the concentration that gives 50% inhibition) is < 1.5 nM.

For `Cc1n[nH]c(C)c1-c1ccc2sc3cc(S(=O)(=O)N[C@H](C(=O)O)C(C)C)ccc3c2c1` [Compound 41, (S)-2-(8-(3,5-dimethyl-1H-pyrazol-4-yl)dibenzo[b,d]thiophene-3-sulfonamido)-3-methylbutanoic acid], the IC50 was found to be 77 nM. With `CC(C)[C@H](NS(=O)(=O)c1ccc2c(c1)oc1ccc(-c3csc4ccccc34)cc12)C(=O)O` [Compound 12, (S)-2-(8-(benzo[b]thiophen-3-yl)dibenzo[b,d]furan-3-sulfonamido)-3-methylbutanoic acid] the figure was < 1.5 nM; with `CC(C)[C@@H](NS(=O)(=O)c1ccc2oc3cc(-c4ccc(C(C)(C)C)o4)ccc3c2c1)C(=O)O` [Compound 240, (R)-2-(7-(5-tert-butylfuran-2-yl)dibenzo[b,d]furan-2-sulfonamido)-3-methylbutanoic acid], 19 nM.

Molecule `Cc1noc(C)c1-c1ccc2oc3cc(S(=O)(=O)N[C@H](C(=O)O)C(C)C)ccc3c2c1` [Compound 9, (S)-2-(8-(3,5-dimethylisoxazol-4-yl)dibenzo[b,d]furan-3-sulfonamido)-3-methylbutanoic acid] registered an IC50 of 10.7 nM.

With `CC(C)[C@H](NS(=O)(=O)c1ccc2c(c1)oc1ccc(/C=C/C3CCCCC3)cc12)C(=O)O` [Compound 35, (S,E)-2-(8-(2-cyclohexylvinyl)dibenzo[b,d]furan-3-sulfonamido)-3-methylbutanoic acid], the IC50 was < 1.5 nM.

As for `Cc1nc(C)c(-c2ccc3c(c2)oc2cc(S(=O)(=O)N[C@H](C(=O)O)C(C)C)ccc23)s1` [Compound 230, (S)-2-(7-(2,4-dimethylthiazol-5-yl)dibenzo[b,d]furan-3-sulfonamido)-3-methylbutanoic acid], the IC50 was < 1.5 nM. With `CC(C)[C@H](NS(=O)(=O)c1ccc2c(c1)oc1ccc(C(=N)NO)cc12)C(=O)O` [Compound 82, (S)-2-(8-(N-hydroxycarbamimidoyl)dibenzo[b,d]furan-3-sulfonamido)-3-methylbutanoic acid], half-maximal inhibition (IC50) was put at 1.8 nM. On to `CC(C)[C@H](NS(=O)(=O)c1ccc2oc3cc(-c4noc(C(C)(C)C)n4)ccc3c2c1)C(=O)O` [Compound 276, (S)-2-(7-(5-tert-butyl-1,2,4-oxadiazol-3-yl)dibenzo[b,d]furan-2-sulfonamido)-3-methylbutanoic acid], for which the IC50 came out at 34 nM. With `CC(C)C[C@H](NS(=O)(=O)c1ccc2oc3cc(-c4noc(C(C)(C)C)n4)ccc3c2c1)C(=O)O` [Compound 279, (S)-2-(7-(5-tert-butyl-1,2,4-oxadiazol-3-yl)dibenzo[b,d]furan-2-sulfonamido)-4-methylpentanoic acid] the figure was 61 nM. Consider `Cc1ccc2nc(-c3ccc4c(c3)oc3ccc(S(=O)(=O)N[C@@H](C(=O)O)C(C)C)cc34)sc2c1` [Compound 298, (R)-3-methyl-2-(7-(6-methylbenzo[d]thiazol-2-yl)dibenzo[b,d]furan-2-sulfonamido)butanoic acid], for which it took 7.4 nM to reach half-maximal inhibition (IC50). As to `CC(C)[C@H](NS(=O)(=O)c1ccc2c(c1)oc1cc(-c3ccco3)ccc12)C(=O)O` [Compound 78, (S)-2-(7-(furan-2-yl)dibenzo[b,d]furan-3-sulfonamido)-3-methylbutanoic acid], the 50% inhibitory concentration (IC50) was < 1.5 nM. As to `CC(C)[C@H](NS(=O)(=O)c1ccc2c(c1)sc1cc(-c3ccccc3)ccc12)C(=O)O` [Compound 313, (S)-3-methyl-2-(7-phenyldibenzo[b,d]thiophene-3-sulfonamido)butanoic acid], the IC50 was < 1.5 nM. With `CC(C)C[C@@H](NS(=O)(=O)c1ccc2oc3cc(-c4noc(C(C)(C)C)n4)ccc3c2c1)C(=O)O` [Compound 278, (R)-2-(7-(5-tert-butyl-1,2,4-oxadiazol-3-yl)dibenzo[b,d]furan-2-sulfonamido)-4-methylpentanoic acid], the IC50 was 7.2 nM. For the molecule `COc1ccc(-c2ccc3oc4cc(S(=O)(=O)N[C@H](C(=O)O)C(C)C)ccc4c3c2)cn1` [Compound 10, (S)-2-(8-(6-methoxypyridin-3-yl)dibenzo[b,d]furan-3-sulfonamido)-3-methylbutanoic acid], the half-inhibitory concentration (IC50) is < 1.5 nM.

As for `Cc1nn(C)c(C)c1-c1ccc2oc3cc(S(=O)(=O)N[C@H](C(=O)O)C(C)C)ccc3c2c1` [Compound 160, (S)-3-methyl-2-(8-(1,3,5-trimethyl-1H-pyrazol-4-yl)dibenzo[b,d]furan-3-sulfonamido)butanoic acid], the IC50 came out at 22 nM. Molecule “(S)-3-methyl-2-(8-(5-((methylamino)methyl)furan-2-yl)dibenzo[b,d]furan-3-sulfonamido)butanoic acid [Compound 68]” had a 50% inhibitory concentration (IC50) of 13 nM. Regarding `Cc1nc(-c2ccc(C(F)(F)F)cc2)sc1-c1ccc2oc3cc(S(=O)(=O)N[C@H](C(=O)O)C(C)C)ccc3c2c1` [Compound 164, (S)-3-methyl-2-(8-(4-methyl-2-(4-(trifluoromethyl)phenyl)thiazol-5-yl)dibenzo[b,d]furan-3-sulfonamido)butanoic acid], the midpoint of inhibition, the IC50, lay at 12.3 nM. Regarding `CC(C)[C@H](NS(=O)(=O)c1ccc2c(c1)oc1ccc(-c3ccc(-c4ccc(Cl)nc4)nc3)cc12)C(=O)O` [Compound 59, (S)-2-(8-(6′-chloro-2,3′-bipyridin-5-yl)dibenzo[b,d]furan-3-sulfonamido)-3-methylbutanoic acid], the half-maximal inhibitory concentration (IC50) is < 1.5 nM.

`Cc1cscc1-c1ccc2sc3cc(S(=O)(=O)N[C@H](C(=O)O)C(C)C)ccc3c2c1` [Compound 24, (S)-3-methyl-2-(8-(4-methylthiophen-3-yl)dibenzo[b,d]thiophene-3-sulfonamido)butanoic acid] returned a half-maximal inhibitory concentration (IC50) of 190 nM. In turn, `Cc1ccc2nc(-c3ccc4oc5cc(S(=O)(=O)N[C@H](C(=O)O)C(C)C)ccc5c4c3)sc2c1` [Compound 210, (S)-3-methyl-2-(8-(6-methylbenzo[d]thiazol-2-yl)dibenzo[b,d]furan-3-sulfonamido)butanoic acid] registered an IC50 of 12 nM. Compared with the last molecule, the IC50 is about 16-fold lower.

The molecule `CC(C)[C@H](NS(=O)(=O)c1ccc2c(c1)oc1ccc(-c3oc(Cl)cc3Cl)cc12)C(=O)O` [Compound 134, (S)-2-(8-(3,5-dichlorofuran-2-yl)dibenzo[b,d]furan-3-sulfonamido)-3-methylbutanoic acid] yielded an IC50 of 2.5 nM.

`CC(C)(C)c1nc(-c2ccc3c(c2)oc2ccc(S(=O)(=O)N[C@H](C(=O)O)c4ccccc4)cc23)no1` [Compound 281, (S)-2-(7-(5-tert-butyl-1,2,4-oxadiazol-3-yl)dibenzo[b,d]furan-2-sulfonamido)-2-phenylacetic acid] registered an IC50 of 90 nM. Under `CC(C)[C@@H](NS(=O)(=O)c1ccc2oc3cc(-c4cc5ccccc5n4C)ccc3c2c1)C(=O)O` [Compound 121, (R)-3-methyl-2-(7-(1-methyl-1H-indol-2-yl)dibenzo[b,d]furan-2-sulfonamido)butanoic acid] stands 140 nM; under `Cc1noc(C)c1-c1ccc2c(c1)oc1ccc(S(=O)(=O)N[C@@H](C(=O)O)C(C)C)cc12` [Compound 145, (R)-2-(7-(3,5-dimethylisoxazol-4-yl)dibenzo[b,d]furan-2-sulfonamido)-3-methylbutanoic acid], 29 nM; under `CC(C)[C@H](NS(=O)(=O)c1ccc2c(c1)oc1ccc(-c3sccc3CN(C)C)cc12)C(=O)O` [Compound 49, (S)-2-(8-(3-((dimethylamino)methyl)thiophen-2-yl)dibenzo[b,d]furan-3-sulfonamido)-3-methylbutanoic acid], 228 nM. In turn, `CC(C)[C@@H](NS(=O)(=O)c1ccc2oc3cc(-c4ccc(-c5ccccc5)s4)ccc3c2c1)C(=O)O` [Compound 289, (R)-3-methyl-2-(7-(5-phenylthiophen-2-yl)dibenzo[b,d]furan-2-sulfonamido)butanoic acid] displayed an IC50 of 9.1 nM. Turning to `CC(C)[C@H](NS(=O)(=O)c1ccc2c(c1)sc1ccc(-c3ccco3)cc12)C(=O)O` [Compound 53, (S)-2-(8-(furan-2-yl)dibenzo[b,d]thiophene-3-sulfonamido)-3-methylbutanoic acid], the IC50 came out at 43 nM. For `CC(C)[C@H](NS(=O)(=O)c1ccc2c(c1)oc1ccc(-c3ccc(C(N)=O)s3)cc12)C(=O)O` [Compound 111, (S)-2-(8-(5-carbamoylthiophen-2-yl)dibenzo[b,d]furan-3-sulfonamido)-3-methylbutanoic acid], the IC50 was < 1.5 nM.

On to `CC(C)[C@H](NS(=O)(=O)c1ccc2c(c1)oc1ccc(-c3ccc(-c4ccon4)s3)cc12)C(=O)O` [Compound 216, (S)-2-(8-(5-(isoxazol-3-yl)thiophen-2-yl)dibenzo[b,d]furan-3-sulfonamido)-3-methylbutanoic acid], for which the IC50 worked out at 4.5 nM. Under `Cc1nc(CC(C)C)sc1-c1ccc2oc3cc(S(=O)(=O)N[C@H](C(=O)O)C(C)C)ccc3c2c1` [Compound 204, (S)-2-(8-(2-isobutyl-4-methylthiazol-5-yl)dibenzo[b,d]furan-3-sulfonamido)-3-methylbutanoic acid] stands 13 nM; under `CC(C)[C@H](NS(=O)(=O)c1ccc2c(c1)oc1ccc(-c3nc4cc(F)ccc4s3)cc12)C(=O)O` [Compound 219, (S)-2-(8-(5-fluorobenzo[d]thiazol-2-yl)dibenzo[b,d]furan-3-sulfonamido)-3-methylbutanoic acid], < 1.5 nM; under `CC(C)[C@@H](NS(=O)(=O)c1ccc2oc3cc(-c4cncnc4)ccc3c2c1)C(=O)O` [Compound 167, (R)-3-methyl-2-(7-(pyrimidin-5-yl)dibenzo[b,d]furan-2-sulfonamido)butanoic acid], < 1.5 nM.
